According to ChEMBL document CHEMBL1201862, “PubChem BioAssay data set” (2004):
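Briefly, cells in 96-well plates were exposed to five compound concentrations for 48 h, and endpoints were estimated by linear interpolation. The concentration for 50% growth inhibition is given as GI50.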 Calls of active or inactive are those of the source. Cut-off read from the data, not from the text of the source: active = GI50 up to about 1.1 µM and inactive = higher.

What was measured:
Experiment in all cases: NCI-60 cell line screen, 48 h
NCI/ADR-RES = tested on: NCI/ADR-RES
NCI-H522 = tested on: NCI-H522
NCI-H23 = tested on: NCI-H23
U-251 = tested on: U-251
CAKI-1 = tested on: CAKI-1
MDA-MB-435 = tested on: MDA-MB-435
SK-OV-3 = tested on: SK-OV-3
ACHN = tested on: ACHN
M14 = tested on: M14
MDA-MB-231 = tested on: MDA-MB-231
OVCAR-4 = tested on: OVCAR-4
CCRF-CEM = tested on: CCRF-CEM
T47D = tested on: T47D
PC-3 = tested on: PC-3
Hs-578T = tested on: Hs-578T

Measured: GI50

COc1cc(/C=C2\C[C@H]3[C@@H]4CCc5cc(O)ccc5[C@H]4CC[C@]3(C)C2=O)cc(OC)c1OC
inactive: NCI/ADR-RES 16.8 µM | NCI-H522 1.83 µM | NCI-H23 14.4 µM | U-251 15.8 µM | CAKI-1 11.4 µM | MDA-MB-435 16.9 µM | SK-OV-3 21.2 µM | ACHN 15.5 µM | M14 16.8 µM | MDA-MB-231 14.3 µM | OVCAR-4 15.8 µM | CCRF-CEM 12.9 µM | T47D 13.5 µM | PC-3 10.1 µM

O=C1NC(=S)NC(=O)C1=Cc1ccc(-c2ccccc2)cc1
inactive: NCI/ADR-RES 27.9 µM | NCI-H23 > 100 µM | U-251 54.1 µM | CAKI-1 > 100 µM | MDA-MB-435 > 100 µM | SK-OV-3 > 100 µM | ACHN > 100 µM | M14 > 100 µM | MDA-MB-231 99.8 µM | OVCAR-4 > 100 µM | CCRF-CEM 36.3 µM | T47D > 100 µM | Hs-578T 79.4 µM | PC-3 > 100 µM

COC(=O)/C(C#N)=C(\N)c1c(C)c2ccccc2oc1=N
inactive: NCI-H522 > 100 µM | U-251 > 100 µM | CAKI-1 > 10 µM | MDA-MB-435 > 100 µM | SK-OV-3 > 100 µM | MDA-MB-231 86.7 µM | OVCAR-4 > 100 µM | T47D > 100 µM | Hs-578T > 100 µM | PC-3 > 100 µM

CC12C(=O)OC(=O)C1(C)C1C=CC2O1 (stereo unspecified)
inactive: NCI/ADR-RES > 100 µM | NCI-H522 > 100 µM | NCI-H23 > 100 µM | U-251 > 100 µM | CAKI-1 54.7 µM | MDA-MB-435 > 100 µM | SK-OV-3 > 100 µM | ACHN > 100 µM | M14 64.9 µM | MDA-MB-231 42.6 µM | CCRF-CEM > 100 µM | Hs-578T 29.1 µM | PC-3 > 100 µM

CC(C)(C)[Si](C)(C)OC1(CCc2ccccc2OS(=O)(=O)C(F)(F)F)CCCC=C1COCc1ccccc1 (stereo unspecified)
inactive: NCI/ADR-RES > 100 µM | NCI-H522 2.79 µM | NCI-H23 9.62 µM | U-251 5 µM | CAKI-1 > 100 µM | MDA-MB-435 > 100 µM | SK-OV-3 > 100 µM | ACHN 35.4 µM | MDA-MB-231 > 100 µM | OVCAR-4 6.05 µM | CCRF-CEM 5.19 µM | T47D 6.35 µM | PC-3 3.51 µM

COc1ccc(NC(C)=O)cc1N1C(=O)/C(=C\c2cc(OC)c(OC)c(OC)c2)S(=O)(=O)C1c1ccccc1 (stereo unspecified)
inactive: NCI/ADR-RES 73.6 µM | NCI-H522 45.5 µM | NCI-H23 71.4 µM | U-251 46.8 µM | CAKI-1 > 100 µM | MDA-MB-435 39.7 µM | SK-OV-3 > 100 µM | ACHN 70.5 µM | M14 69.5 µM | MDA-MB-231 74.3 µM | OVCAR-4 31.6 µM | CCRF-CEM 29.3 µM | T47D 38.3 µM | PC-3 39.3 µM

Cc1n[nH]c(=O)n1N=C(c1ccccc1)c1ccccc1
inactive: NCI/ADR-RES > 100 µM | NCI-H522 > 100 µM | NCI-H23 > 100 µM | U-251 > 100 µM | CAKI-1 > 100 µM | MDA-MB-435 > 100 µM | ACHN > 100 µM | M14 > 100 µM | MDA-MB-231 > 100 µM | OVCAR-4 > 100 µM | CCRF-CEM > 100 µM | Hs-578T > 100 µM | PC-3 > 100 µM

CC1(C)OCC=CCO1
inactive: NCI/ADR-RES > 100 µM | NCI-H522 69.8 µM | NCI-H23 > 100 µM | U-251 > 100 µM | CAKI-1 > 100 µM | MDA-MB-435 > 100 µM | SK-OV-3 > 100 µM | ACHN > 100 µM | M14 > 100 µM | OVCAR-4 > 100 µM | CCRF-CEM 62.5 µM | T47D > 100 µM | Hs-578T > 100 µM | PC-3 > 100 µM

O=C1OCc2c1cc1cc3c(cc1c2-c1ccc2c(c1)OCO2)OCO3.O=C1OCc2cc3cc4c(cc3c(-c3ccc5c(c3)OCO5)c21)OCO4
inactive: NCI/ADR-RES 4.68 µM | NCI-H23 28.8 µM | U-251 13.2 µM | CAKI-1 11.8 µM | MDA-MB-435 1.87 µM | SK-OV-3 17.8 µM | M14 4.47 µM | MDA-MB-231 2.12 µM | OVCAR-4 18 µM | CCRF-CEM 3.34 µM | T47D 24.5 µM | Hs-578T 14.5 µM | PC-3 8.38 µM

CC(C)(C)OC(=O)N1CCC(NC(=O)NC2CCN(C(=O)OC(C)(C)C)CC2)CC1
inactive: NCI/ADR-RES > 100 µM | NCI-H522 > 100 µM | NCI-H23 > 100 µM | U-251 > 100 µM | CAKI-1 > 100 µM | MDA-MB-435 > 100 µM | ACHN > 100 µM | M14 > 100 µM | MDA-MB-231 > 100 µM | OVCAR-4 > 100 µM | CCRF-CEM > 100 µM | Hs-578T > 100 µM | PC-3 > 100 µM

N=C(N)SCCN1CCCCC1
inactive: NCI/ADR-RES 29.2 µM | NCI-H522 7.5 µM | NCI-H23 26.1 µM | U-251 19.9 µM | CAKI-1 26.7 µM | MDA-MB-435 19.4 µM | SK-OV-3 46.8 µM | ACHN 25.6 µM | M14 19.9 µM | MDA-MB-231 22.8 µM | OVCAR-4 31.6 µM | T47D 27.5 µM | Hs-578T 11.7 µM | PC-3 15.9 µM

CN(C)CC1CN=C(N)O1 (stereo unspecified)
inactive: NCI/ADR-RES > 100 µM | NCI-H522 > 100 µM | NCI-H23 > 100 µM | U-251 > 100 µM | CAKI-1 > 100 µM | MDA-MB-435 > 100 µM | SK-OV-3 > 100 µM | ACHN > 100 µM | M14 > 100 µM | MDA-MB-231 > 100 µM | OVCAR-4 > 100 µM | CCRF-CEM > 100 µM | PC-3 > 100 µM

CN1C(=O)C2(C)SC1(c1ccccc1)C1C(=O)N(c3ccccc3)C(=O)C12 (stereo unspecified)
inactive: NCI/ADR-RES 38.6 µM | NCI-H522 96.4 µM | NCI-H23 > 100 µM | U-251 67.9 µM | CAKI-1 > 100 µM | MDA-MB-435 76 µM | SK-OV-3 > 100 µM | ACHN 91.8 µM | M14 > 100 µM | MDA-MB-231 > 100 µM | OVCAR-4 41.3 µM | T47D 52.2 µM | Hs-578T > 100 µM | PC-3 43.4 µM

Cn1c2ccccc2c2c3c(c4c5ccccc5n(C)c4c21)C(=O)c1ccccc1C3=O
inactive: NCI/ADR-RES 61.1 µM | NCI-H522 18.9 µM | NCI-H23 18.6 µM | U-251 17.9 µM | CAKI-1 33.9 µM | MDA-MB-435 51.3 µM | SK-OV-3 48.9 µM | ACHN 28.2 µM | M14 76.9 µM | MDA-MB-231 19.6 µM | OVCAR-4 58.3 µM | CCRF-CEM > 100 µM | T47D 13.2 µM | PC-3 45.8 µM

CC1(C)CCSC(/C=C/c2ccccc2)=N1
inactive: NCI/ADR-RES 14.7 µM | NCI-H522 17 µM | NCI-H23 17.8 µM | U-251 17.9 µM | CAKI-1 14.8 µM | MDA-MB-435 17.9 µM | SK-OV-3 43.9 µM | ACHN 17.5 µM | M14 13.2 µM | MDA-MB-231 15.7 µM | OVCAR-4 16 µM | CCRF-CEM 21.5 µM | Hs-578T 43.4 µM | PC-3 16.6 µM

CC1(CO)OC(n2cnc3cncnc32)CC1O (stereo unspecified)
inactive: NCI/ADR-RES > 100 µM | NCI-H522 > 100 µM | NCI-H23 > 100 µM | U-251 > 100 µM | CAKI-1 > 100 µM | MDA-MB-435 > 100 µM | SK-OV-3 > 100 µM | ACHN > 100 µM | M14 > 100 µM | MDA-MB-231 > 100 µM | OVCAR-4 > 100 µM | CCRF-CEM > 100 µM | T47D > 100 µM | PC-3 > 100 µM

C=C(CBr)CCCOCc1ccccc1
inactive: NCI/ADR-RES 20.2 µM | NCI-H522 22.3 µM | NCI-H23 13.9 µM | U-251 34.7 µM | CAKI-1 5.6 µM | MDA-MB-435 28.4 µM | SK-OV-3 35.5 µM | ACHN 14.1 µM | M14 16.7 µM | MDA-MB-231 > 10 µM | OVCAR-4 17.6 µM | CCRF-CEM 26.1 µM | T47D 37.8 µM | PC-3 19.7 µM

O=C1NC2NC3NC(=O)NC3NC2N1 (stereo unspecified)
inactive: NCI/ADR-RES > 100 µM | NCI-H522 > 100 µM | NCI-H23 > 100 µM | U-251 > 100 µM | CAKI-1 > 100 µM | MDA-MB-435 > 100 µM | ACHN > 100 µM | M14 > 100 µM | MDA-MB-231 > 100 µM | CCRF-CEM > 100 µM | PC-3 > 100 µM

O=C1CC(C(COCc2ccccc2)OCc2ccccc2)CC(=O)N1 (stereo unspecified)
inactive: NCI-H522 > 100 µM | NCI-H23 > 100 µM | U-251 > 100 µM | CAKI-1 > 100 µM | MDA-MB-435 > 100 µM | ACHN > 100 µM | M14 > 100 µM | MDA-MB-231 > 100 µM | CCRF-CEM > 100 µM | T47D 86.3 µM | Hs-578T > 100 µM | PC-3 83.2 µM

Cc1ccc(/C=N/n2c(Cc3ccccc3)n[nH]c2=O)cc1
inactive: NCI/ADR-RES > 100 µM | NCI-H522 > 100 µM | NCI-H23 > 100 µM | CAKI-1 28.6 µM | ACHN > 100 µM | M14 > 100 µM | MDA-MB-231 > 100 µM | OVCAR-4 > 100 µM | CCRF-CEM > 100 µM | T47D > 100 µM | Hs-578T 65.2 µM | PC-3 > 100 µM

Cc1ccc(/C=C/C(=O)c2cc(CN(C)C)c(O)c(CN(C)C)c2)cc1
inactive: NCI/ADR-RES 25.4 µM | NCI-H522 14.8 µM | NCI-H23 29 µM | U-251 21.9 µM | CAKI-1 20.7 µM | MDA-MB-435 21.4 µM | ACHN 12.1 µM | M14 15.8 µM | MDA-MB-231 13.8 µM | CCRF-CEM 14.4 µM | T47D 18 µM | Hs-578T 29.8 µM | PC-3 13.5 µM
